Measured values: US12551463B2, “Dosing of a Bruton's tyrosine kinase inhibitor” (Loxo Oncology, Inc., priority 2019, dated 2026)
Entries after “also recorded” stand apart in the source; their conditions may differ. Where two headings read alike, the source gives them in different places. Marks after values point to notes of the source that are not given here.

Assay: Phase 1/2 clinical study: pharmacokinetics in cancer patients
Type: in vivo, human
Conditions: for half-life: read-out: T1/2 Geo mean (% CV) (converted); for Cmax: read-out: Cmax Geo mean (% CV); for Tmax: read-out: Tmax Median (min, max)
Text: The study is an open-label, multi-center study of oral BTK-I to evaluate safety and efficacy as monotherapy and as part of combination therapy in patients with CLL/SLL and NHL who have failed or are intolerant to standard of care. This study includes monotherapy as well as combination treatment parts. The monotherapy part includes Phase 1 dose escalation and dose expansion as well as Phase 2. The combination therapy part is a Phase 1b (safety assessment and expansion) of BTK-I in combination with venetoclax, with or without anti-CD20 therapy. Phase 1 dose escalation will proceed prior to start of Phase 1b or Phase 2. Once a recommended Phase 2 dose (RP2D) is identified in Phase 1, enrollment can commence to the Phase 1b combination therapies and Phase 2 monotherapy cohorts.
BTK-I is administered in oral tablet form. Dose escalation will follow a 3+3 design starting with a 25 mg QD dose (followed by 50 mg QD (dose level cohort 2), 100 mg QD (dose level cohort 3), 150 mg QD (dose level cohort 4), 200 mg QD (dose level cohort 5), 250 mg QD (dose level cohort 6), and 300 mg QD (dose level cohort 7)). Cycle length will be 28 days. The drug limiting toxicity (DLT) period will be 28 days, commencing with the first dose of BTK-I.
The pharmacokinetic profiles and adverse events for BTK-I doses are summarized in the below tables.
Pharmacokinetic Parameters of BTK-I—in Cancer Patients at Steady State (Cycle 1 Day 8)

[1] = human, plasma, oral, 25 mg QD, steady state (Cycle 1 Day 8), N=5
[2] = human, plasma, oral, 25 mg, read-out: Mean patient plasma CONC (SD)
[3] = human, plasma, oral, 50 mg QD, steady state (Cycle 1 Day 8), N=6
[4] = human, plasma, oral, 50 mg, read-out: Mean patient plasma CONC (SD)

COc1ccc(F)cc1C(=O)NCc1ccc(-c2nn([C@@H](C)C(F)(F)F)c(N)c2C(N)=O)cc1 [BTK-I, (S)-5-amino-3-(4-((5-fluoro-2-methoxybenzamido)methyl)phenyl)-1-(1,1,1-trifluoropropane-2-yl)-1H-pyrazole-4-carboxamide]
Ratio AUC0-8 Day 8/Day 1 Geo mean (% CV) (25 mg QD (N = 5)): 1.44 (23.0%)
CL/F Geo mean (% CV) (25 mg QD, steady state (Cycle 1 Day 8), N = 4, % CV 69.6%): 1.55^a (69.6%) L/h
dose dependence of exposure (Cmax and AUC) (25 mg to 300 mg daily): dose-5 dependent and linear increases in BTK-I exposure; also recorded: linear dose-proportional exposures
interpatient variability of exposure (25 mg to 300 mg daily): low interpatient variability
Ratio AUC0-8 Day 8/Day 1 Geo mean (% CV) (50 mg QD (N = 6)): 1.51 (25.9%)
CL/F Geo mean (% CV) (50 mg QD, steady state (Cycle 1 Day 8), N = 5, % CV 36.7%): 2.62^b (36.7%) L/h
Ratio AUC0-8 Day 8/Day 1 Geo mean (% CV) (100 mg QD (N = 9)): 1.88 (42.8%)
CL/F Geo mean (% CV) (100 mg QD, steady state (Cycle 1 Day 8), N = 8, % CV 63.0%): 0.968^c (63.0%) L/h
Ratio AUC0-8 Day 8/Day 1 Geo mean (% CV) (150 mg QD (N = 20)): 1.74 (24.9%)
T1/2 Geo mean (% CV) (150 mg QD, steady state (Cycle 1 Day 8), N = 18, % CV 51.8%): 18.l^d (51.8%)
CL/F Geo mean (% CV) (150 mg QD, steady state (Cycle 1 Day 8), N = 18, % CV 66.7%): 1.36^d (66.7%) L/h
trough steady-state exposure relative to BTK IC96 (200 mg QD): BTK IC96 target coverage
Ratio AUC0-8 Day 8/Day 1 Geo mean (% CV) (200 mg QD, N = 73, % CV 29.6%): 1.69^h (29.6%)^
CL/F Geo mean (% CV) (200 mg QD, steady state (Cycle 1 Day 8), N = 64, % CV 61.8%): 1.14^e (61.8%) L/h
Ratio AUC0-8 Day 8/Day 1 Geo mean (% CV) (250 mg QD (N = 25)): 1.68 (24.5%)
CL/F Geo mean (% CV) (250 mg QD, steady state (Cycle 1 Day 8), N = 21, % CV 1.08%): 1.26^f (1.08%) L/h
Cmax Geo mean (% CV) (250 mg QD, steady state (Cycle 1 Day 8), N=25): 8100 (28.1%) ng/mL
Ratio AUC0-8 Day 8/Day 1 Geo mean (% CV) (300 mg QD, N=17): 2.15 (31.2%)
CL/F Geo mean (% CV) (300 mg QD, steady state (Cycle 1 Day 8), N = 16, % CV 42.5%): 1.63^g (42.5%) L/h
AUC(0-t) (human, plasma, oral, 25 mg, 25 mg QD, steady state (Cycle 1 Day 8), N=5, read-out: AUC0-8 Geo mean (% CV)): 4240 ng·h/mL
AUC(0-t) (human, plasma, oral, 25 mg, 25 mg QD, steady state (Cycle 1 Day 8), N=5, read-out: AUC0-24 Geo mean (% CV)): 9800 ng·h/mL
AUC(0-t) (human, plasma, oral, 50 mg, 50 mg QD, steady state (Cycle 1 Day 8), N=6, read-out: AUC0-8 Geo mean (% CV)): 8660 ng·h/mL
AUC(0-t) (human, plasma, oral, 50 mg, 50 mg QD, steady state (Cycle 1 Day 8), N=6, read-out: AUC0-24 Geo mean (% CV)): 20100 ng·h/mL
AUC(0-t) (human, plasma, oral, 100 mg, 100 mg QD, steady state (Cycle 1 Day 8), N=9, read-out: AUC0-8 Geo mean (% CV)): 22000 ng·h/mL
AUC(0-t) (human, plasma, oral, 100 mg, 100 mg QD, steady state (Cycle 1 Day 8), N=9, read-out: AUC0-24 Geo mean (% CV)): 52400 ng·h/mL
AUC(0-t) (human, plasma, oral, 150 mg, 150 mg QD, steady state (Cycle 1 Day 8), N=20, read-out: AUC0-8 Geo mean (% CV)): 28000 ng·h/mL
AUC(0-t) (human, plasma, oral, 150 mg, 150 mg QD, steady state (Cycle 1 Day 8), N=20, read-out: AUC0-24 Geo mean (% CV)): 64400 ng·h/mL
AUC(0-t) (human, plasma, oral, 200 mg, 200 mg QD, steady state (Cycle 1 Day 8), N=99, read-out: AUC0-8 Geo mean (% CV)): 36900 ng·h/mL
AUC(0-t) (human, plasma, oral, 200 mg, 200 mg QD, steady state (Cycle 1 Day 8), N=99, read-out: AUC0-24 Geo mean (% CV)): 91000 ng·h/mL
AUC(0-t) (human, plasma, oral, 250 mg, 250 mg QD, steady state (Cycle 1 Day 8), N=25, read-out: AUC0-8 Geo mean (% CV)): 49700 ng·h/mL
AUC(0-t) (human, plasma, oral, 250 mg, 250 mg QD, steady state (Cycle 1 Day 8), N=25, read-out: AUC0-24 Geo mean (% CV)): 111000 ng·h/mL
AUC(0-t) (human, plasma, oral, 300 mg, 300 mg QD, steady state (Cycle 1 Day 8), N=17, read-out: AUC0-8 Geo mean (% CV)): 65800 ng·h/mL
AUC(0-t) (human, plasma, oral, 300 mg, 300 mg QD, steady state (Cycle 1 Day 8), N=17, read-out: AUC0-24 Geo mean (% CV)): 158000 ng·h/mL
half-life (human, plasma, oral, 25 mg QD, steady state (Cycle 1 Day 8), N = 4, % CV 60.1%): 18.2 h
Cmax [1]: 734 ng/mL
Tmax [1]: 2 h
concentration at 0 h [2]: 263 ng/mL
concentration at 1 h [2]: 572 ng/mL
concentration at 2 h [2]: 650 ng/mL
concentration at 4 h [2]: 538 ng/mL
concentration at 8 h (human, plasma, oral, 25 mg, 8 hr, read-out: Mean patient plasma CONC (SD)): 495 ng/mL
concentration at 24 h (human, plasma, oral, 25 mg, 24 hr (not measured, inferred based on predose), read-out: Mean patient plasma CONC (SD)): 263 ng/mL
half-life (human, plasma, oral, 50 mg QD, steady state (Cycle 1 Day 8), N = 5, % CV 39.6%): 17.6 h
Cmax [3]: 1420 ng/mL
Tmax [3]: 1.5 h
concentration at 0 h [4]: 571 ng/mL
concentration at 1 h [4]: 1150 ng/mL
concentration at 2 h [4]: 1300 ng/mL
concentration at 4 h [4]: 1170 ng/mL
